The results in this text go back to US20160106692A1 (priority 2014, published 2016).

Assay [1] has as its system Influenza Virus A/Maryland/04/2011 H1N1. Format: cell-based.
Assay [2] concerns Influenza Virus A/California/07/2009 H1N1. The format is cell-based.

Entries after “also recorded” stand apart in the source; their conditions may differ.

Regarding `CCOC(=O)C1=C[C@@H](OC(CC)CC)[C@H](NC(C)=O)[C@@H](N)C1` [Oseltamivir], the entries for the “plaque inhibition, result in words” value in assay [1] and in assay [2] were “only partially sensitive; also recorded: reduced oseltamivir susceptibility” and “sensitive to this drug to 1 μM; also recorded: showed inhibitory effects”, respectively.
